Calls of active or inactive are those of the source. The calls are words filed in the database; no cut-off is given here.
Columns and labels:
[1] = target: T1, Nuclear factor erythroid 2-related factor 2 (Homo sapiens) (UniProt Q16236); experiment: Activation of Nrf2 in human HSC3-ARE9 cells assessed as increase of ARE-mediated luciferase expression at 50 uM after 24 hrs in presence of MEK inhibitor U0126; assay type: cell-based
T1 sequence (whole entry): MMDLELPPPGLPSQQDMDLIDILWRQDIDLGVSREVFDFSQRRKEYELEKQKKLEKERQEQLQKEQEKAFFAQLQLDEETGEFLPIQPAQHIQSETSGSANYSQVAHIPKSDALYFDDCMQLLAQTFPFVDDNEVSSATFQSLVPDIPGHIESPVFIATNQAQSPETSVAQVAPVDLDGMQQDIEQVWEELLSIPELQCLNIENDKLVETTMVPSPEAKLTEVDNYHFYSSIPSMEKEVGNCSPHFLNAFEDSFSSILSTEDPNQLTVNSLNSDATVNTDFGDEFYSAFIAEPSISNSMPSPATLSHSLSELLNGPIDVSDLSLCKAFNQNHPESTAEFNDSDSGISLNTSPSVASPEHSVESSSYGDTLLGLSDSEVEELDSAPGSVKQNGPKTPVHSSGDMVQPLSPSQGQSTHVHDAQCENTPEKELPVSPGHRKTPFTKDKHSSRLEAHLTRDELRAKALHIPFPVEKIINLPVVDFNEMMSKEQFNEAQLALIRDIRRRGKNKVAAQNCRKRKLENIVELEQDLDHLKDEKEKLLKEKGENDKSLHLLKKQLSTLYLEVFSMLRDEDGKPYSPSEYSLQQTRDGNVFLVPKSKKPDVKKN

[2] = target: T1, Nuclear factor erythroid 2-related factor 2 (Homo sapiens); experiment: Activation of Nrf2 in human HSC3-ARE9 cells assessed as increase of ARE-mediated luciferase expression at 50 uM after 24 hrs in presence of PI3K inhibitor LY294002; assay type: cell-based
Mus musculus [3] = experiment: Toxicity in C57BL/6J mouse assessed as change in body weight at 50 mg/kg, po qd for 7 days; assay type: organism-based; conditions: in vivo, 168 h
[4] = target: T1, Nuclear factor erythroid 2-related factor 2 (Homo sapiens); experiment: Activation of Nrf2 in human HSC3-ARE9 cells assessed as increase of ARE-mediated AKR1C3 mRNA expression at 50 uM after 24 hrs by RT-PCR analysis relative to control; assay type: cell-based
[5] = target: T1, Nuclear factor erythroid 2-related factor 2 (Homo sapiens); experiment: Activation of Nrf2 in human HSC3-ARE9 cells assessed as increase of ARE-mediated AKR1C2 mRNA expression at 50 uM after 24 hrs by RT-PCR analysis relative to control; assay type: cell-based
Mus musculus [6] = experiment: Induction of Nrf2-mediated cytoprotective activity in C57BL/6J mouse assessed as increase of HO-1 level in liver at 50 mg/kg, po qd for 7 days measured after 24 hrs of last dose; assay type: functional, organism-based
[7] = target: T1, Nuclear factor erythroid 2-related factor 2 (Homo sapiens); experiment: Activation of Nrf2 in human HSC3-ARE9 cells assessed as increase of protein level in nucleus after 24 hrs by Western blot analysis; assay type: cell-based
[8] = target: T1, Nuclear factor erythroid 2-related factor 2 (Homo sapiens); experiment: Activation of Nrf2 in human HSC3-ARE9 cells assessed as increase of ARE-mediated Prx1 protein expression after 24 hrs by Western blot analysis; assay type: cell-based
[9] = target: T1, Nuclear factor erythroid 2-related factor 2 (Homo sapiens); experiment: Activation of Nrf2 in human HSC3-ARE9 cells assessed as increase of ARE-mediated ABCC3 mRNA expression at 50 uM after 24 hrs by RT-PCR analysis relative to control; assay type: cell-based
Mus musculus [10] = experiment: Induction of Nrf2-mediated cytoprotective activity in C57BL/6J mouse assessed as increase of AKR1C1 level in liver at 50 mg/kg, po qd for 7 days measured after 24 hrs of last dose; assay type: functional, organism-based
[11] = target: T1, Nuclear factor erythroid 2-related factor 2 (Homo sapiens); experiment: Activation of Nrf2 in human HSC3-ARE9 cells assessed as increase of ARE-mediated GCLC mRNA expression at 50 uM after 24 hrs by RT-PCR analysis relative to control; assay type: cell-based
HSC-3 = experiment: Inhibition of t-BOOH-induced oxidative stress in human HSC3 cells assessed as intracellular ROS level at 50 uM after 24 hrs by DCF fluorescence assay; assay type: functional, cell-based
Mus musculus [12] = experiment: Induction of Nrf2-mediated cytoprotective activity in C57BL/6J mouse assessed as increase of GR level in liver at 50 mg/kg, po qd for 7 days measured after 24 hrs of last dose; assay type: functional, organism-based
[13] = Cytotoxicity against human HSC3 cells after 24 hrs by MTT assay; assay type: cell-based; conditions: hsc-3, 24 h
[14] = target: T1, Nuclear factor erythroid 2-related factor 2 (Homo sapiens); experiment: Activation of Nrf2 in human HSC3-ARE9 cells assessed as increase of ARE-mediated luciferase expression at 50 uM after 24 hrs in presence of p38 inhibitor SB203580; assay type: cell-based
[15] = Antioxidant activity assessed as DPPH radical scavenging activity; assay type: physicochemical
[16] = target: T1, Nuclear factor erythroid 2-related factor 2 (Homo sapiens); experiment: Activation of Nrf2 in human HSC3-ARE9 cells assessed as increase of ARE-mediated GCLC protein expression after 24 hrs by Western blot analysis; assay type: cell-based
[17] = target: T1, Nuclear factor erythroid 2-related factor 2 (Homo sapiens); experiment: Increase of Nrf2 phosphorylation at ser-40 in human HSC3 cells at 50 uM after 24 hrs by Western blot analysis relative to control; assay type: cell-based; conditions: HSC-3
[18] = target: T1, Nuclear factor erythroid 2-related factor 2 (Homo sapiens); experiment: Activation of Nrf2 in human HSC3-ARE9 cells assessed as increase of ARE-mediated luciferase expression at 50 uM after 24 hrs relative to control; assay type: cell-based
[19] = target: T1, Nuclear factor erythroid 2-related factor 2 (Homo sapiens); experiment: Activation of Nrf2 in human HSC3-ARE9 cells assessed as increase of ARE-mediated AKR1C1 mRNA expression at 50 uM after 24 hrs by RT-PCR analysis relative to control; assay type: cell-based
[20] = target: T1, Nuclear factor erythroid 2-related factor 2 (Homo sapiens); experiment: Activation of Nrf2 in human HSC3-ARE9 cells assessed as increase of ARE-mediated luciferase expression after 24 hrs; assay type: cell-based
[21] = target: T1, Nuclear factor erythroid 2-related factor 2 (Homo sapiens); experiment: Activation of Nrf2 in human HSC3-ARE9 cells assessed as increase of ARE-mediated NQO1 mRNA expression at 50 uM after 24 hrs by RT-PCR analysis relative to control; assay type: cell-based
[22] = target: T1, Nuclear factor erythroid 2-related factor 2 (Homo sapiens); experiment: Activation of Nrf2 in human HSC3-ARE9 cells assessed as increase of ARE-mediated luciferase expression at 50 uM after 24 hrs in presence of PKC inhibitor Ro-31-8220; assay type: cell-based
[23] = target: T1, Nuclear factor erythroid 2-related factor 2 (Homo sapiens); experiment: Activation of Nrf2 in human HSC3-ARE9 cells assessed as increase of ARE-mediated Prx1 mRNA expression at 50 uM after 24 hrs by RT-PCR analysis relative to control; assay type: cell-based
[24] = target: T1, Nuclear factor erythroid 2-related factor 2 (Homo sapiens); experiment: Activation of Nrf2 in human HSC3-ARE9 cells assessed as increase of ARE-mediated AKR1C1 protein expression after 24 hrs by Western blot analysis; assay type: cell-based
[25] = target: T1, Nuclear factor erythroid 2-related factor 2 (Homo sapiens); experiment: Activation of Nrf2 in human HSC3-ARE9 cells assessed as increase of ARE-mediated GR mRNA expression at 50 uM after 24 hrs by RT-PCR analysis relative to control; assay type: cell-based

Activity [1]: Active
Activity [2]: inactive
fold change (FC) [4]: 1.3
fold change (FC) [5]: 1.4
Activity [7]: Dose-dependent effect
Activity [8]: Dose-dependent effect
fold change (FC) [9]: 1.3
fold change (FC) [11]: 1.6
Activity [14]: Active
EC50 [15]: > 400 µM
Activity [16]: Dose-dependent effect
Activity [17]: 126%
fold change (FC) [18]: 3.45
fold change (FC) [19]: 1.5
Activity [20]: Dose-dependent effect
fold change (FC) [21]: 1.2
Activity [22]: inactive
fold change (FC) [23]: 1.6
Activity [24]: Dose-dependent effect
fold change (FC) [25]: 1.3
SMILES: O=c1oc2ccccc2cc1OC/C(=N\O)c1ccccc1
Activity (Mus musculus [3]): Non-toxic
Activity (Mus musculus [6]): Active
Activity (Mus musculus [10]): Active
inhibition (HSC-3): Active
Activity (Mus musculus [12]): Active
Activity [13]: Non-toxic
